Results: patent publication US6903052B2, “Nematicidal compositions and methods” (Divergence, Inc., priority 2002, dated 2005)

What was measured:
[1] = system: free-living, animal parasitic, and plant parasitic nematodes; assay: Nematicidal activity across the spectrum of nematodes, summary statement (Example 8); assay type: cell-based; conditions: concentrations of 0.1% and 0.01%
Experimental: (§1) Briefly, the indicated fatty acid emulsions were added and rapidly mixed by swirling. Nematode viability was scored by visual observation and motility assays 24 hours following addition of emulsions (48 hours for plant parasitic nematodes Meloidogyne and Heterodera species). The fatty acid emulsions tested were methyl esters of nonanoic (pelargonic) acid, ricinelaidic acid, ricinoleic acid, vernolic acid, linoleic acid, and oleic acid. […] Results shown are mean % values obtained from multiple independent experiments
(§2) The Caenorhabiditis elegans were mixed stage populations. Similar effects seen on several other free-living nematode species. The Parastrongyloides trichosuri (parasite of Australian bushtail possum) were dauer-like infective 3rd stage larva. Similar effects are also seen against free-living stages. The Meloidogyne incognita and Meloidogyne javanica (root knot nematode) were 2nd stage juveniles (dauer-like infective stage). The Heterodera glycines (soybean cyst nematode) were 2nd stage juveniles (dauer-like infective stage). Finally, the Pratylenchus scribneri (corn lesion nematode) were mixed stage populations.

[2] = system: C. elegans; assay: Nematicidal activity of emulsions made with Tween-20 (replacing Igepal CO 630) against C. elegans; assay type: cell-based, Caenorhabditis elegans; conditions: Tween-20 emulsion
Experimental: Some nematodes assayed as described in Example 9 lacked tolerance to emulsions made with the surfactant Igepal CO 630. For this reason some assays were repeated with Tween-20-based emulsions.
(§3) Briefly, 1 ml 1% stock solution emulsions were prepared by mixing 10 μl of fatty acid methyl ester with 20 μl of the surfactant Tween-20 in a 1.5 ml eppendorf tube. After careful mixing of fatty acid and Tween-20, 850 μl of ddH20 was added and mixed by gentle pipetting until a homogeneous solution was obtained. Finally, 120 μl of pure isopropanol was added and mixed by gentle pipetting. This stock solution was then used to produce various fatty acid methyl ester dilution emulsions in 24-well plate assays.

[3] = system: C. elegans; assay: Nematicidal activity of fatty acid methyl ester emulsions, spectrum (Example 8); assay type: cell-based, Caenorhabditis elegans; conditions: C. elegans mixed stage
Experimental: as §1, §2

[4] = system: C. elegans; assay: Nematicidal activity of emulsions made with cyclodextrins (replacing isopropanol) against C. elegans; assay type: cell-based, Caenorhabditis elegans; conditions: igepal CO 630 / 2-Hydroxypropyl-β-Cyclodextrin emulsion
Source text: In an effort to increase the bioavailability of fatty acid methyl esters in emulsions, isopropanol was replaced with one of two cyclodextrins (Methyl-β-Cyclodextrin or 2-Hydroxypropyl-β-Cyclodextrin).

[5] = system: M. javanica; assay: Nematicidal activity of fatty acid methyl ester emulsions, spectrum (Example 8); assay type: cell-based, Meloidogyne javanica; conditions: M. javanica 2nd stage juveniles, scored at 48 hours
Experimental: as §1, §2

[6] = system: B. malayi; assay: Nematicidal activity of tween-based emulsions against microfilarial nematodes; assay type: cell-based, Brugia malayi
Experimental: To each well, tween-based fatty acid emulsions were added and rapidly mixed by swirling. Nematode microfilaria viability was scored by visual observation of motility at 24 and 48 hours following addition of emulsions. The fatty acid emulsions tested were methyl esters of ricinoleic acid, vernolic acid, ricinelaidic acid, oleic acid, and control emulsions lacking fatty acids. The results of this study are presented in Table 7 as the percentage of non-motile microfilaria 24 hours after inoculation and in Table 8 as the percentage of non-motile microfilaria 48 hours after inoculation

[7] = system: everted hamster jejunal and ileal segments; conditions: Gaginella et al. (1975); cited from earlier work
[8] = system: M. incognita; assay: Nematicidal activity of fatty acid methyl ester emulsions, spectrum (Example 8); assay type: cell-based, Meloidogyne incognita; conditions: M. incognita 2nd stage juveniles, scored at 48 hours
Experimental: as §1, §2

[9] = system: P. trichosuri; assay: as above; assay type: cell-based, Parastrongyloides trichosuri; conditions: P. trichosuri infective 3rd stage larva
Experimental: as §1, §2

[10] = system: root knot nematodes (Meloidogyne spp.); assay: Nematicidal activity against root knot nematodes, summary statement; assay type: cell-based; conditions: concentration of 0.1%
Experimental: (§4) Meloidogyne incognita and javanica were prepared from tomato roots. The roots were bleached and the debris was separated from the J2 larvae and eggs by filtration followed by sucrose density gradient centrifugation. Eggs were hatched over 4 days at 15° C. and the J2 larvae were collected by passage though a filter, followed by centrifugation.
(§5) Nematodes and emulsions were incubated with shaking at room temperature for 48 hours. The contents of each well were transferred to a small spot on individual NGM plates lacking bacteria. About 24 hours after the transfer to plates, worms on and off the inoculation spot were counted as not viable or viable, respectively. Worms were considered viable if they had crawled away from the inoculation spot, or if they were moving. Worms were considered non-viable if they remained at the inoculation spot.

[11] = system: H. glycines; assay: Nematicidal activity of fatty acid methyl ester emulsions, spectrum (Example 8); assay type: cell-based, Heterodera glycines; conditions: H. glycines 2nd stage juveniles, scored at 48 hours
Experimental: as §1, §2

[12] = system: M. incognita; assay: Nematicidal activity of fatty acid methyl ester emulsions against root knot nematode J2 larvae (Example 6); assay type: cell-based, Meloidogyne incognita; conditions: 0.1% emulsion; 48 hours incubation, counted about 24 hours after transfer to plates
Experimental: as §3, with “Fatty acid methyl ester emulsions were prepared following the teachings of Kim et al (U.S. Pat. No. 5,698,592). Briefly,” for “Briefly,”, “Igepal CO 630” for “Tween-20”, “Igepal CO 630,” for “Tween-20,”
as §4, §5

[13] = system: P. scribneri; assay: Nematicidal activity of fatty acid methyl ester emulsions, spectrum (Example 8); assay type: cell-based, Pratylenchus scribneri; conditions: P. scribneri mixed stage
Experimental: as §1, §2

[14] = system: tomato seedlings; assay: Phytotoxicity evaluation on tomato seedlings; assay type: in vivo; conditions: 250 μl of 1% emulsion applied to stem-media interface of two-week seedlings
Experimental: Sterilized tomato seeds were germinated in magenta jars containing Gamborg's agar media. After two weeks of growth, seedlings were treated with 250 μl of 1% fatty acid methyl ester emulsion (nonanoic acid, ricinoleic acid, ricinelaidic acid, oleic acid, or a control emulsion lacking any fatty acid), applied directly to the stem-media interface. Tomato seedlings were scored at various times after application of emulsions.

SMILES: CCCCCCC(O)C/C=C\CCCCCCCC(=O)OC (stereo not drawn) [Ricinoleic Acid (C18-methyl ester), 12-hydroxy-cis-9-octadecenoic acid methyl ester]
- Nematicidal activity (in words) [1]: strongly nematicidal
- % Worm Death (24 hr) ([2]; 0.001% solution): 40%
- % Worm Death (24 hr) ([2]; 0.01% solution): 100%
- % Worm Death (24 hr) ([2]; 0.1% solution): 100%
- % Worm Death (24 hr) ([3]; 0.001% solution): 30%
- % Worm Death (24 hr) ([3]; 0.01% solution): 80%
- % Worm Death (24 hr) ([3]; 0.1% solution): 100%
- % Worm Death (24 hr) ([4]; 0.001% solution): ˜50%
- % Worm Death (24 hr) ([4]; 0.01% solution): >80%
- % Worm Death (24 hr) ([4]; 0.1% solution): >95%
- % Worm Death (48 hr) ([5]; 0.01% solution): 5%
- % Worm Death (48 hr) ([5]; 0.1% solution): 60%
- percentage of non-motile microfilaria ([6]; 24 hrs post-inoculation, 0.0008%): 0%
- percentage of non-motile microfilaria ([6]; 24 hrs post-inoculation, 0.0016%): 24.7%
- percentage of non-motile microfilaria ([6]; 24 hrs post-inoculation, 0.003%): 100%
- percentage of non-motile microfilaria ([6]; 24 hrs post-inoculation, 0.005%): 100%
- percentage of non-motile microfilaria ([6]; 24 hrs post-inoculation, 0.0067%): 100%
- percentage of non-motile microfilaria ([6]; 24 hrs post-inoculation, 0.008%): 100%
- percentage of non-motile microfilaria ([6]; 48 hrs post-inoculation, 0.0008%): 0%
- percentage of non-motile microfilaria ([6]; 48 hrs post-inoculation, 0.0016%): 64.2%
- percentage of non-motile microfilaria ([6]; 48 hrs post-inoculation, 0.003%): 100%
- percentage of non-motile microfilaria ([6]; 48 hrs post-inoculation, 0.005%): 100%
- percentage of non-motile microfilaria ([6]; 48 hrs post-inoculation, 0.0067%): 100%
- percentage of non-motile microfilaria ([6]; 48 hrs post-inoculation, 0.008%): 100%
- Microfilarialcidal activity (in words) ([6]; tween-based emulsions): strong microfilarialcidal activity
- Effect on water (and electrolyte) absorption [7]: ineffective at suppressing water absorption
- % Worm Death (24 hr) ([8]; 0.01% solution): 83%
- % Worm Death (24 hr) ([8]; 0.1% solution): 95%
- % Worm Death (24 hr) ([9]; 0.01% solution): ˜60%
- % Worm Death (24 hr) ([9]; 0.1% solution): ˜50%
- Nematicidal activity (in words) [10]: significant nematicidal activity
- % Worm Death (24 hr) ([11]; 0.001% solution): ˜40%
- % Worm Death (24 hr) ([11]; 0.01% solution): ˜60%
- % Worm Death (24 hr) ([11]; 0.1% solution): ˜60%
- M. incognita (% not viable) [12]: 95%
- % Worm Death (24 hr) ([13]; 0.01% solution): <20%
- % Worm Death (24 hr) ([13]; 0.1% solution): <20%
- Visible effects on tomato seedlings [14]: none of the tomatoes treated with the other fatty acid methyl ester emulsions showed visible effects
